Measurements: patent publication US20030215462A1, “Use of UGT inhibitors to increase bioavailability” (priority 2001, published 2003)

How the values were obtained:
[1] = biological target: T1, UGT enzymes of human liver microsomes (Homo sapiens, UniProt P16662); experiment: Inhibition of zidovudine glucuronidation in human liver microsomes; type: biochemical; details: liver lot 062101
T1 construct: residual metabolism (percentage of control), zidovudine glucuronidation; other: liver lot 062101; residual metabolism (percentage of control), zidovudine glucuronidation; residual metabolism (percentage of control)
T1 sequence (P16662 1-529): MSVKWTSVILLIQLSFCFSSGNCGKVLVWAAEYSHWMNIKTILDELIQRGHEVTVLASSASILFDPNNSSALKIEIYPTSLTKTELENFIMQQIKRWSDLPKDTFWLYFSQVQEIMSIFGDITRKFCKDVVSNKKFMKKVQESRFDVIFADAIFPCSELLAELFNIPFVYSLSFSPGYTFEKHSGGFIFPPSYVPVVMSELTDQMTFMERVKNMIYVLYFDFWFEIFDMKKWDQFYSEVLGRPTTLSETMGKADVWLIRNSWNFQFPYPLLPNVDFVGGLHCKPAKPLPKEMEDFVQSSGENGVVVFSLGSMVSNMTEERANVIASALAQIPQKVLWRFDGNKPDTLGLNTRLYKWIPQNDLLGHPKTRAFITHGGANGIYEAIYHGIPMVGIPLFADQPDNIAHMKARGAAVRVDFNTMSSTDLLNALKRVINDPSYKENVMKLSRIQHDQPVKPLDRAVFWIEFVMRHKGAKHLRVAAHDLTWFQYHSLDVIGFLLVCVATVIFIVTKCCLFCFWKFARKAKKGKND
Procedure: Compounds were eluted using a binary solvent gradient system where solvent A was dilute phosphoric acid (pH 3) and solvent B was acetonitrile.
Standardized incubations utilized 500 μM zidovudine substrate, 1 mg/ml microsomal protein, 5 mM UDPGA and a 30 min incubation time. […] Int.

[2] = system: UGT enzymes of pooled human jejunum microsomes; experiment: Inhibition of 2ME2 glucuronidation (MG1) in pooled human jejunum microsomes; type: biochemical; details: jejunum HJ61, 2ME2 50 μM
Text: Compounds were eluted using a binary solvent gradient system where solvent A was dilute phosphoric acid (pH 3) and solvent B was 80:20 acetonitrile-methanol. […] Detection was at 280 nm.

Row | residual metabolism (percentage of control), zidovudine glucuronidation ([1]; inhibitor 500 μM) | residual metabolism (percentage of control), zidovudine glucuronidation ([1]; inhibitor 1000 μM) | residual metabolism (% of control), 2ME2 MG1 ([2]; inhibitor 50 μM) | residual metabolism (% of control), 2ME2 MG1 ([2]; inhibitor 100 μM) | residual metabolism (percentage of control), zidovudine glucuronidation ([1]; inhibitor 50 μM) | residual metabolism (percentage of control), zidovudine glucuronidation ([1]; inhibitor 100 μM) | residual metabolism (percentage of control), zidovudine glucuronidation ([1]; inhibitor 200 μM) | residual metabolism (% of control), 2ME2 MG1 ([2]; inhibitor 25 μM) | Structure (SMILES)
1 | 74 (2) % | 43 (2) % | 91 (1) % | 82 (2) % | – | – | – | – | O=C(O)c1cc(-c2ccc(F)cc2F)ccc1O [Diflunisal, reference compound]
2 | 28 (1) % | – | 63 (1) % | 47 (2) % | 80 (1) % | 67 (1) % | 60 (2) % | 76 (4) % | O=C(O[C@@H]1Cc2c(O)cc(O)cc2O[C@@H]1c1ccc(O)c(O)c1)c1cc(O)c(O)c(O)c1 [Epicatechin gallate]
3 | 77 (2) % | – | – | – | – | – | – | – | CCCOC(=O)c1cc(O)c(O)c(O)c1 [Propyl gallate]
